In US11230717B2, “Plants having increased tolerance to herbicides” (BASF SE, priority 2013, dated 2022):
pKi: −log10 of the molar value.

Legend:
[1] = molecular target: T1, Hordeum HPPD (SEQ ID NO:2) (Hordeum vulgare, UniProt O48604, A164G/R146V/R147D/R148G); assay: HPPD activity assay, in vitro characterization; type: biochemical
T1 construct: subcloned into a modified pET24D (Novagen) expression vector resulting in N-terminally His-tagged expression constructs; His (N); made in house; host or cells: E. coli BL21 (DE3)
T1 sequence (O48604 whole entry R146V/R147D/R148G/A164G): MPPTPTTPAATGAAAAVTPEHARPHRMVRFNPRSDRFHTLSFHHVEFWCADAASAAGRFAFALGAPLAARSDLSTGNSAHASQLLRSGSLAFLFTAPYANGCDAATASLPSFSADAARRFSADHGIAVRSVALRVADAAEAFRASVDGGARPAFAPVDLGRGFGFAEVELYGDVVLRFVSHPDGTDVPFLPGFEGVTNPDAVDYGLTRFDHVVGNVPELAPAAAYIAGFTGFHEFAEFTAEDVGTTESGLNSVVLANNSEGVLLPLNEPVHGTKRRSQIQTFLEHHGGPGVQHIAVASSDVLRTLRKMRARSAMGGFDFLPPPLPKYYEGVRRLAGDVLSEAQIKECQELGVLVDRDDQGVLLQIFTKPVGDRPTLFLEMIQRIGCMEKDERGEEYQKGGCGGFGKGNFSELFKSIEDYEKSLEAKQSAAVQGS
Description: (§1) HPPD produces homogentisic acid and CO2 from 4-hydroxyphenylpyruvate (4-HPP) and O2. The activity assay for HPPD is based on the analysis of homogentisic acid by reversed phase HPLC.
(§2) The assay mixture can contain 150 mM potassium phosphate buffer pH 7.0, 50 mM L-ascorbic acid, 100 μM Catalase (Sigma-Aldrich), 1 μM FeSO4 and 0.2 units of purified HPPD enzyme in a total volume of 505 μl. 1 unit is defined as the amount of enzyme that is required to produce 1 nmol of HGA per minute at 20° C.
(§3) After a preincubation of 30 min the reaction is started by adding 4-HPP to a final concentration of 0.05 mM. The reaction is allowed to proceed for 45 min at room temperature. The reaction is stopped by the addition of 50 μl of 4.5 M phosphoric acid. The sample is filtered using a […] pore size PVDF filtration device.
(§4) 5 μl of the cleared sample is analyzed on an UPLC HSS T3 column (particle size 1.8 μm, dimensions 2,1×50 mm; Waters) by isocratic elution using 90% 20 mM NaH2PO4 pH 2.2, 10% methanol (v/v).
(§5) HGA is detected electrochemically at 750 mV (mode: DC; polarity: positive) and quantified by integrating peak areas (Empower software; Waters).
(§6) Inhibitors are dissolved in DMSO (dimethylsulfoxide) to a concentration of 0.5 mM. From this stock solution serial five-fold dilutions are prepared in DMSO, which are used in the assay. The respective inhibitor solution accounts for 1% of the assay volume. […] Activities are normalized by setting the uninhibited enzyme activity to 100%. IC50 values are calculated using non-linear regression.
Using methods which are described in the above examples or well known in the art, purified, recombinant wildtype HPPD enzymes are characterized with respect to their kinetic properties and sensitivity towards HPPD inhibiting herbicides. Apparent michaelis constants (Km) and maximal reaction velocities (Vmax) are calculated by non-linear regression with the software GraphPad Prism 5 (GraphPad Software, La Jolla, USA) using a substrate inhibition model. […] Weighted means (by standard error) of Km and IC50 values are calculated from at least three independent experiments. […] To assess the potential performance of a herbicide tolerance trait a tolerance index (TI) is calculated using the following formula: […]

[2] = molecular target: T2, Hordeum HPPD variant L353M, P321R, L320Q (Hordeum vulgare, UniProt O48604, L320Q/L353M/P321R); assay: HPPD activity assay, in vitro characterization of HPPD mutants; type: biochemical; details: normalized to wild-type
T2 construct: His (N); made in house; host or cells: E. coli BL21 (DE3)
T2 sequence (O48604 whole entry R146V/R147D/R148G/A164G/L320Q/P321R/L353M): as the sequence (O48604 whole entry R146V/R147D/R148G/A164G) above, with L320Q, P321R, L353M counted along it
Description: as §1, §2, §3, §4, §5, §6
(§7) Purified, mutant HPPD enzymes are obtained by the methods described above. Dose response and kinetic measurements are carried out using the described HPPD activity assay. Apparent michaelis constants (Km) and maximal reaction velocities (Vmax) are calculated by non-linear regression with the software GraphPad Prism 5 (GraphPad Software, La Jolla, USA) using a substrate inhibition model. […] Weighted means (by standard error) of Km and IC50 values are calculated from at least three independent experiments.
(§8) Field performance of the optimized HPPD enzyme, which is used as a herbicide tolerance trait may depend not only on its lack of sensitivity towards HPPD inhibiting herbicides but also on its activity. To assess the potential performance of a herbicide tolerance trait a tolerance index (TI) is calculated using the following formula: […]

[3] = molecular target: T3, Hordeum HPPD variant L320N (Hordeum vulgare, UniProt O48604, A164G/L320N/R146V/R147D/R148G); assay: as above; type: biochemical; details: normalized to wild-type
T3 construct: His (N); made in house; host or cells: E. coli BL21 (DE3)
T3 sequence (O48604 whole entry R146V/R147D/R148G/A164G/L320N): as the sequence (O48604 whole entry R146V/R147D/R148G/A164G) above, with L320N counted along it
Description: as §1, §2, §3, §4, §5, §6, §7, §8

[4] = tested on: transgenic Soy plants; assay: Greenhouse testing of transgenic Soy plants (T2), herbicide spray test; type: in vivo, Glycine max
Description: Transgenic plants expressing heterologous HPPD or HST enzymes are tested for tolerance against HPPD-inhibiting herbicides in greenhouse experiments.
For post emergence treatment, the test plants are first grown to a height of 3 to 15 cm, depending on the plant habit, and only then treated with the herbicides. For this purpose, the test plants are either sown directly and grown in the same containers, or they are first grown separately and transplanted into the test containers a few days prior to treatment. For testing of T0 plants, cuttings can be used. In the case of soybean plants, an optimal shoot for cutting is about 7.5 to 10 cm tall, with at least two nodes present. Each cutting is taken from the original transformant (mother plant) and dipped into rooting hormone powder (indole-3-butyric acid, IBA). The cutting is then placed in oasis wedges inside a bio-dome. Wild type cuttings are also taken simultaneously to serve as controls. The cuttings are kept in the bio-dome for 5-7 days and then transplanted to pots and then acclimated in the growth chamber for two more days. Subsequently, the cuttings are transferred to the greenhouse, acclimated for approximately 4 days, and then subjected to spray tests as indicated.
Depending on the species, the plants are kept at 10-25° C. or 20-35° C. The test period ex-tends over 3 weeks. During this time, the plants are tended and their response to the individual treatments is evaluated. Herbicide injury evaluations are taken at 2 and 3 weeks after treatment. Plant injury is rated on a scale of 0 to 9, 0 being no injury and 9 being complete death.
As depicted in Table 20, control plants were severely injured by all doses of herbicide applied, with 79% of leaf material being damaged at the highest application rate. […] Application of 31,25 g/ha active ingredient resulted only in 10-13% of leaf damage in two independent transgenic plant lines. Thus, in direct comparison with wild-type plants (injury value is 49%), a 4-fold increased tolerance could be observed after spraying with 31,25 g/ha. […]

[5] = molecular target: T4, Arabidopsis HPPD variant F381I (Arabidopsis thaliana, UniProt P93836, F381I); assay: HPPD activity assay, in vitro characterization of HPPD mutants; type: biochemical; details: normalized to wildtype
T4 construct: His6 (N); made in house; host or cells: E. coli BL21 (DE3)
T4 sequence (P93836 whole entry F381I): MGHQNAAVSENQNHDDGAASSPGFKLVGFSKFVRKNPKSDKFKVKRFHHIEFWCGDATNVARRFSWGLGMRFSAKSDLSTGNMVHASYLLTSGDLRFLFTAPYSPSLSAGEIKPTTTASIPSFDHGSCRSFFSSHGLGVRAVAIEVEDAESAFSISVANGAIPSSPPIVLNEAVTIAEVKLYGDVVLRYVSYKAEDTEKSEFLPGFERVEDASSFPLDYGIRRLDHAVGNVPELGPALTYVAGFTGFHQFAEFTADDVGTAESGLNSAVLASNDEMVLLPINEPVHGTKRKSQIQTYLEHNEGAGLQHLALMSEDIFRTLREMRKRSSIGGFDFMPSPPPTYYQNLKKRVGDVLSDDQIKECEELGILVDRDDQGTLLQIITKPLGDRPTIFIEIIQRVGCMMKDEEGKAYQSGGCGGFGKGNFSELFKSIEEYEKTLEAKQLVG
Description: as §1, §2, §3, §4, §5, §6, §7, §8

[6] = Hordeum HPPD Wild-type (SEQ ID NO: 2), reference of Table 16
[7] = Hordeum HPPD, reference, normalized to SEQ ID NO:2

SMILES | pKi [1] | Normalized tolerance index (TI) [1, 6] | Normalized tolerance index (TI) [1, 7] | TI (tolerance index) ([1]; Hordeum HPPD, not normalized) | Normalized tolerance index (TI) [2] | Normalized tolerance index (TI) [3] | increased tolerance vs wild-type plants ([4]; Soy Arabidopsis HPPD (SEQ ID: 53), 31,25 g/ha) [fold] | leaf damage ([4]; Soy Arabidopsis HPPD, two independent transgenic plant lines, 31,25 g/ha) | tolerance compared to nontransgenic control plants ([4]; Soy expressing Glycine max HPPD) | Normalized tolerance index (TI) [5]
Cn1nnnc1NC(=O)c1c(F)cc(Cl)c(S(C)(=O)=O)c1Cl [Inhibitor 1, 2,4-dichloro-6-fluoro-3-methylsulfonyl-N-(1-methyltetrazol-5-yl)benzamide] | 8.43 | 1 | 1 | 1.6E−3 | 2.5 | 5.2 | – | – | – | –
CSc1c(Cl)cc(F)c(C(=O)Nc2ncnn2C)c1Cl [Inhibitor 3, 2,4-dichloro-6-fluoro-3-methylsulfanyl-N-(2-methyl-1,2,4-triazol-3-yl)benzamide] | – | 1 | 1 | – | – | – | 4 | 10-13% | more tolerant | 0.1
